The experiment has as its system CCR2. Kind of experiment: In vitro assay, TNF-α stimulated CCR2 expression in THP-1 cells (quantitative PCR). It counts as cell-based, human. The conditions noted are these: THP-1 cells treated with TNF-α. An excerpt: In the following study, the activity of cerivastatin and other statins, including simvastatin, lovastatin and atorvastatin, was similarly assessed using the human monocytic cell line THP-1. The THP-1 cells were similarly seeded by preparing a solution of THP-1 cells at 6×10^5 cells/ml and loading the solution of THP-1 cells onto a cell culture plate. The in vitro assay included six (6) treatment groups, including one (1) control group consisting of untreated THP-1 cells, one (1) positive control group consisting of THP-1 cells treated with tumor necrosis factor alpha (TNF-α) alone, four (4) treatment groups consisting of THP-1 cells treated with TNF-α and cerivastatin, TNF-α and simvastatin, TNF-α and lovastatin and TNF-α and atorvastatin. In this study, the THP-1 cells were treated with TNF-α to stimulate the production of CCR2. Each of the six (6) THP-1 cell samples were harvested and collected in a sealable vial and centrifuged to separate the liquid media from the THP-1 cells. The THP-1 cells were then collected and used for RNA extraction and quantitative PCR.

Structures are written as SMILES.

With `CC(C)c1c(C(=O)Nc2ccccc2)c(-c2ccccc2)c(-c2ccc(F)cc2)n1CC[C@@H](O)C[C@@H](O)CC(=O)O` [atorvastatin], the “expression of CCR2” value is “did not, however, restrict CCR2 expression at levels comparable to cerivastatin”.
The entry for `CC[C@H](C)C(=O)O[C@H]1C[C@@H](C)C=C2C=C[C@H](C)[C@H](CC[C@@H]3C[C@@H](O)CC(=O)O3)[C@H]21` [lovastatin] is “did not, however, restrict CCR2 expression at levels comparable to cerivastatin”.

The values above are taken from patent US10383977B2, “Cardiovascular prostheses” (CorMatrix Cardiovascular, Inc., priority 2011, dated 2019).
